Experimental data reported in PubChem BioAssay (NCI).
Values joined by “and” are separate entries in the source; they are usually repeats but may differ in a detail not shown here. Identical values can stand only once.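 The compound was tested at five concentrations on cells cultured in 96-well plates, with a 48-hour exposure period. GI50 = concentration required for 50% inhibition of growth. TGI denotes the concentration required for complete inhibition of growth.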

Tests used:
Test in all cases: NCI tumour cell line growth inhibition, 48 h
CCRF-CEM leukemia = tested on: CCRF-CEM leukemia
EKVX NSCLC = tested on: EKVX NSCLC
IGROV1 ovarian = tested on: IGROV1 ovarian
M14 melanoma = tested on: M14 melanoma
MALME-3M melanoma = tested on: MALME-3M melanoma
OVCAR-8 ovarian = tested on: OVCAR-8 ovarian
SF-268 CNS = tested on: SF-268 CNS
SN12C renal = tested on: SN12C renal
SW-620 colon = tested on: SW-620 colon
U251 CNS = tested on: U251 CNS

SMILES	TGI (CCRF-CEM leukemia) [µM]	TGI (EKVX NSCLC) [µM]	TGI (IGROV1 ovarian) [µM]	TGI (M14 melanoma) [µM]	TGI (MALME-3M melanoma) [µM]	TGI (OVCAR-8 ovarian) [µM]	TGI (SF-268 CNS) [µM]	TGI (SN12C renal) [µM]	TGI (SW-620 colon) [µM]	TGI (U251 CNS) [µM]	GI50 (CCRF-CEM leukemia)	GI50 (EKVX NSCLC) [µM]	GI50 (IGROV1 ovarian) [µM]	GI50 (M14 melanoma) [nM]	GI50 (MALME-3M melanoma) [µM]	GI50 (OVCAR-8 ovarian) [µM]	GI50 (SF-268 CNS) [µM]	GI50 (SN12C renal) [µM]	GI50 (SW-620 colon) [nM]	GI50 (U251 CNS) [µM]
COC(=O)N/N=C(\C)C(CN(C)C)C(c1ccccc1)c1c(O)c2ccccc2oc1=O (stereo not given)	> 100	> 100	> 100	> 100	> 100	> 100	> 100	> 100	> 100	> 100	–	–	–	–	–	–	–	–	–	–
COc1ccc2nc3cccc([N+](=O)[O-])c3c(NCCNCCN(C)C)c2c1	0.29	1.43	0.136	0.208	0.538	0.277	0.715	0.592	2.27	0.404	38.4 nM	0.261	0.0195	73.4	0.205	0.044	0.161	0.141	48.6	0.0376
O=C(/C=C\n1cnc(-c2cc(C(F)(F)F)cc(C(F)(F)F)c2)n1)N1CC(F)(F)C1	> 18.8	14.6	8.59	6.57	5.84	> 11.8	2.48	> 25	12.9	3.66	407 nM	0.953	0.978	1360	1.14	0.442	0.254	1.19	318	0.248
Cc1c(C)c2c(c(C)c1OCC(=O)O)CC[C@@](C)(CCC[C@@H](C)CCC[C@@H](C)CCCC(C)C)O2	189	148	187	114	130	152	196	176	218	133	27100 nM	64.2	91.7	41100	66.5	59.4	87.8	66.7	81900	52.7
COc1cc(-c2cc3ncccc3c3[nH]c(=O)c4cccnc4c23)cc(OC)c1OC	> 100	> 100	> 100	> 100	> 100	> 100	> 100	> 100	> 100	> 100	623 nM	0.818	3.61	425	16.2	2.51	2.16	14.3	493	0.603
O=c1[nH]c(=O)n(C2CC(O)C(CO)O2)cc1COCC(F)(F)F (stereo not given)	> 100	> 100	> 100	> 100	> 100	> 100	> 100	> 100	> 100	> 100	–	–	–	–	–	–	–	–	–	–
Nc1nc2c(ccc3ccccc32)s1	> 100	> 100	> 100	> 100	> 100	> 100	> 100	> 100	> 100	> 100	48100 nM	40.5	> 100	> 100000	61.9	> 100	33.2	> 100	> 100000	> 100
C/C(CC(=O)Nc1ccc(NC(=O)C/C(C)=N\NC(N)=O)cc1)=N/NC(N)=O	> 100	> 100	> 100	> 100	> 100	> 100	> 100	> 100	> 100	> 100	–	–	–	–	–	–	–	–	–	–
O=C(Nc1ccc2c(c1)OCCO2)C(=O)c1c[nH]c2ccccc12	> 100	> 100	> 72.4	> 100	> 100	35.7	37.5	> 83	> 100	15.9	1080 nM	5.37	3.09	839	10.5	2.37	1.98	2.31	475	1.63
CC(C)=C1CCC(CN2CCOCC2)C1=O (stereo not given)	7.9	34.5	39.2	14.6	7	27.8	45	16.7	4.26	48.9	–	–	–	–	–	–	–	–	–	–
COc1cccc2nc3c(C(=O)NCCN(C)C)cccc3nc12	25.7	40.5	> 72.9	36.3	21.9	> 88	1.84	> 72.3	> 57.7	59.1	–	–	–	–	–	–	–	–	–	–
O=C(O)Cn1ccc2ccccc21	> 100	> 100	> 100	> 100	> 100	> 100	> 100	> 100	> 100	> 100	> 100000 nM	> 100	72.7	> 100000	> 100	> 100	> 100	> 100	> 100000	> 100
CN1CCN(CCCOc2cccc3nc(Nc4ccc(F)c(F)c4)ccc23)CC1	8.06	9.41	11.4	1.49	6.05	10.2	9.74	9.93	10.5	7.2	2420 nM	4.83	5.55	680	1.44	5.13	4.46	4.87	1820	2.68
CCOc1ccc(N=Cc2ccnc3ccccc23)cc1	36.5	> 100	> 100	80	> 97.7	> 83.7	> 84.2	> 91.5	> 100	> 68.1	–	–	–	–	–	–	–	–	–	–
C=C(CN1c2ccccc2Sc2ccccc21)c1ccc(C(=O)Nc2ccccc2N)cc1	–	> 100	> 100	> 100	> 100	> 100	> 100	> 100	> 100	> 100	101 nM	> 86	28.1	32900	> 23	> 80.4	25.7	8.07	> 92300	> 50.3
CCn1c(=N)sc2nc3ccccc3n2c1=O	> 100	> 100	> 100	> 100	> 100	> 100	> 100	> 100	> 100	> 100	–	–	–	–	–	–	–	–	–	–

SMILES	TGI (CCRF-CEM leukemia) [µM]	TGI (EKVX NSCLC) [µM]	TGI (IGROV1 ovarian) [µM]	TGI (M14 melanoma) [µM]	TGI (MALME-3M melanoma) [µM]	TGI (OVCAR-8 ovarian) [µM]	TGI (SF-268 CNS) [µM]	TGI (SN12C renal) [µM]	TGI (SW-620 colon) [µM]	TGI (U251 CNS) [µM]	GI50 (CCRF-CEM leukemia)	GI50 (EKVX NSCLC) [µM]	GI50 (IGROV1 ovarian) [µM]	GI50 (M14 melanoma) [nM]	GI50 (MALME-3M melanoma) [µM]	GI50 (OVCAR-8 ovarian) [µM]	GI50 (SF-268 CNS) [µM]	GI50 (SN12C renal) [µM]	GI50 (SW-620 colon) [nM]	GI50 (U251 CNS) [µM]
COC(=O)CC(=O)NCC1=CCC(=O)CC1	> 100	> 100	> 100	> 100	> 100	> 100	> 100	> 100	> 100	> 100	–	–	–	–	–	–	–	–	–	–
Nc1ccccc1C(=O)NC(=O)Nc1ccc(Oc2ncc(Br)cn2)c(Cl)c1	1.9	29.6	7.83	2.08	11.6	4.77	18.9	17.4	26.3	12.4	24.9 nM and < 24.6 nM	0.0198	–	–	–	–	–	–	18.1	–
CC(=O)OC1C(O[C@H]2CC[C@]34O[C@]35CC[C@]3(C)C(C6(C)CC[C@@H](C(C)(C)O)O6)[C@@H](O)CC3(C)[C@@H]5CC(OC3OC(CO)C(O)C(O)C3O)C4C2(C)C)OCC(O)C1O (stereo not given in full)	> 31.6	> 100	> 100	> 100	> 100	> 100	> 100	> 100	> 49.3	> 100	–	–	–	–	–	–	–	–	–	–
CC1=C(C(=O)Nc2ccccc2)C(c2cc(Cl)cc(Cl)c2)C(C(=O)Nc2ccccc2)=C(C)N1	14.9	41.3	41.9	27.8	27.9	43.5	15.3	25.3	25.9	12.9	–	–	–	–	–	–	–	–	–	–
N#C/C(=C\c1ccccc1)C(NO)Nc1ccccc1 (stereo not given)	> 100	> 100	> 100	> 100	> 100	> 100	> 100	> 100	> 100	> 100	–	–	–	–	–	–	–	–	–	–
CCOC(=O)C#Cc1c(C(=O)OCC)nnn1[C@@H]1O[C@H](CO)[C@H]2OC3(CCCCC3)O[C@H]21	4.85	30.1	36.7	7.6	3.76	13.2	34.6	9.37	3.64	23.2	1620 nM	15.6	15.5	2670	1.87	3.81	14.3	3.11	1810	11.2
c1ccc(C2CC(c3ccc4ccccc4c3)=Nc3ccccc3S2)cc1 (stereo not given)	99.7	50.7	49	31.2	35.8	29.9	31.1	30.4	33.8	31	–	–	–	–	–	–	–	–	–	–
CCc1nn2ncccc2c1-c1ccnc(NC2CC2)n1	> 25	> 25	> 25	> 25	> 25	> 25	> 25	> 25	> 25	> 25	> 25000 nM	> 25	> 25	> 25000	> 25	> 25	> 25	> 25	> 25000	> 25
NC(=S)N/N=C1/CN(c2ccc(Cl)c(Cl)c2)CC(=O)C1c1nc2ccccc2s1 (stereo not given)	> 100	> 100	> 100	> 100	> 100	> 100	> 100	> 100	> 100	> 100	–	–	–	–	–	–	–	–	–	–
COC(=O)CCC(=O)N1CC1C (stereo not given)	> 100	> 100	> 100	> 100	> 100	> 100	> 100	> 100	> 100	> 100	–	–	–	–	–	–	–	–	–	–
CCN(CC)c1ccc(N=Nc2ccc(-c3nc4cccn(C)c-4n3)cc2)cc1	19.8	84.9	25	24.4	26.8	24	50.1	19.3	22.9	16.3	–	–	–	–	–	–	–	–	–	–
Oc1c(O)c(Cl)c(Cl)c(Cl)c1Cl	27.7	18.9	10.4	15.4	13.4	13.9	> 100	50	30.3	86.2	2730 nM	2.95	3.06	3510	2.83	2.89	3.09	3.79	3170	4.21
O=C1C=C(Nc2ccc(S(=O)(=O)Nc3ncccn3)cc2)c2ccccc2C1=O	> 100	67.1	58	34.1	43.9	42.4	59.7	35.9	35.1	31.5	–	–	–	–	–	–	–	–	–	–
C1CC2=C(C1)C1=S(S2)SC2=C1CCC2	> 100	> 100	> 100	> 100	> 100	> 100	> 100	> 100	> 100	> 100	–	–	–	–	–	–	–	–	–	–
CCN(CC)c1ccc(/C=N/NC(=O)CSc2nc3ccccc3c(=O)n2Cc2ccc(S(N)(=O)=O)cc2)c(O)c1	> 100	> 100	> 100	10.9	> 100	> 100	> 100	> 100	> 100	> 100	196 nM	0.65	0.785	452	1.09	0.932	0.766	1.93	949	0.51
CC12OC(C(=O)C13CCC3)C1C(=O)c3ccc4c(ccc5ccccc54)c3C(=O)C12 (stereo not given)	15.2	63.7	> 100	45.4	17.2	> 100	32.9	19.6	–	31.9	2990 nM	20.7	21.4	14500	4.2	6.49	11.6	2.72	–	11.5
